Data: patent publication US10894787B2, “Modulators of the GPR119 receptor and the treatment of disorders related thereto” (Arena Pharmaceuticals, Inc., priority 2010, dated 2021)

Test system: incretin hormone GIP
Assay: In vivo incretin hormone GIP release, Total GIP ELISA on plasma
Parameters: species or system mouse
Details: blood sample after 45 min, male 129SVE mice
Protocol: Male 129SVE mice (approximately 8-week old) were fasted for 18 h and randomly grouped (n=6) to receive a GPR119 agonist, (Compound 1), at an oral dose of 0.1, 0.3, 1, 3, 10, or 30 mpk (mg/kg body weight). Compounds were delivered orally via a gavage needle (p.o., volume 4 mL/kg), and after 45 min a blood sample was collected to determine plasma total GIP levels. A separate group received vehicle (PET: 80% PEG400, 10% ethanol, 10% Tween80) as control. Plasma GIP levels were determined using a Total GIP ELISA kit from Millipore.

CN(C)C(=O)c1ccc(Nc2ncnc(N3CCC(c4nc(C(C)(C)F)no4)CC3)c2F)c(F)c1 [Compound 1, 3-fluoro-4-(5-fluoro-6-(4-(3-(2-fluoropropan-2-yl)-1,2,4-oxadiazol-5-yl)piperidin-1-yl)pyrimidin-4-ylamino)-N,N-dimethylbenzamide]
Total Plasma GIP in Mice, Total GIP (0.1 mg/kg p.o.): 60.92 pg/mL | Total Plasma GIP in Mice, Total GIP (0.3 mg/kg p.o.): 68.21 pg/mL | Total Plasma GIP in Mice, Total GIP (1 mg/kg p.o.): 183.8 pg/mL | Total Plasma GIP in Mice, Total GIP (3 mg/kg p.o.): 318.5 pg/mL | Total Plasma GIP in Mice, Total GIP (10 mg/kg p.o.): 444.8 pg/mL | Total Plasma GIP in Mice, Total GIP (30 mg/kg p.o.): 695.0 pg/mL
